Assay results: patent US20210395313A1, “PEPTIDE PAC1 ANTAGONISTS” (AMGEN INC., priority 2017, published 2021)
Where a SMILES comes first, the peptide text is derived from it. Bridges are numbered along the chain shown (N, C = ends). Where no end group is shown, it is not given here.

Key:
[1] = target: T1, rat PAC1 receptor (Rattus norvegicus, UniProt P32215); assay: LANCE Ultra cAMP accumulation antagonist assay in RG-2 cells; format: cell-based;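 also: RG-2 rat glioma cells endogenously expressing PAC1, test peptide preincubated 30 min, then PAC1 agonist added at its EC80 for 15 min, cAMP accumulation read by LANCE Ultra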
T1 construct: SHSY-5Y (human neuroblastoma cell line) and RG-2 (rat glioma cell line) cells endogenously express human and rat PAC1 receptors, respectively; endogenous in cells; host or cells: RG-2 rat glioma cells
T1 sequence (P32215 20-523): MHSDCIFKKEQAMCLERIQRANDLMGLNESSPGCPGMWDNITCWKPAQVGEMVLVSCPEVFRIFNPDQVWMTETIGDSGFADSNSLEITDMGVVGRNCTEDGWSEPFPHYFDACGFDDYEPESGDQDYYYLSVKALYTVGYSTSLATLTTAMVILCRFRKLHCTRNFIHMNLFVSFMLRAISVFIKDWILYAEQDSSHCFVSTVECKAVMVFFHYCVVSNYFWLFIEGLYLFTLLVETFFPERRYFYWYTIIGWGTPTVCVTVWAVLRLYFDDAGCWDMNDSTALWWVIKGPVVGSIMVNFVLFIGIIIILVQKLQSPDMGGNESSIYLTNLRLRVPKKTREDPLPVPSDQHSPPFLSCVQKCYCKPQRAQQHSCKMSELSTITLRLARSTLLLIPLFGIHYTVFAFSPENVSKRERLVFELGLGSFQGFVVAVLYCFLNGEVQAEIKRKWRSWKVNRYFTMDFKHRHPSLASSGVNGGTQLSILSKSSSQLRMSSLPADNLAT

[2] = target: T2, human PAC1 receptor (Homo sapiens, UniProt P41586); assay: LANCE Ultra cAMP accumulation antagonist assay in SHSY-5Y cells; format: cell-based;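 also: inhibition of cAMP accumulation evoked by PAC1 agonist at its EC80 in SHSY-5Y cells endogenously expressing receptor, 30 min preincubation then 15 min agonist, TR-FRET readout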
T2 construct: SHSY-5Y (human neuroblastoma cell line) and RG-2 (rat glioma cell line) cells endogenously express human and rat PAC1 receptors, respectively; endogenous in cells; host or cells: SHSY-5Y human neuroblastoma cells
T2 sequence (P41586 21-468): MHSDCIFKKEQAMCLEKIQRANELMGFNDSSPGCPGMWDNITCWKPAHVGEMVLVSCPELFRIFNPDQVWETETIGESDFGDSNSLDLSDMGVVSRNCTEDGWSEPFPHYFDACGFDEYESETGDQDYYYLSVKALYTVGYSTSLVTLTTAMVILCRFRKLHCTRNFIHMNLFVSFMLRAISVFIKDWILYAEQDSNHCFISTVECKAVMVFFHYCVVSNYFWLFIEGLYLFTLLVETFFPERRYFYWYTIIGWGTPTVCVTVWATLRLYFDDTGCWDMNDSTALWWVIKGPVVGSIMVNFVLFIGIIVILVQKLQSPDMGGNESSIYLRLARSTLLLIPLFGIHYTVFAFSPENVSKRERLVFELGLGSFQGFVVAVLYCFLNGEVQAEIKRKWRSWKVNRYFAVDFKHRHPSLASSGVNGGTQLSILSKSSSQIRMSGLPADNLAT
Protocol: In order to determine the potency of peptide antagonists at the PAC1 receptor, functional cAMP accumulation assays using LANCE Ultra cAMP assay kit to measure the agonist and antagonist activity of PAC1 peptides were used. SHSY-5Y (human neuroblastoma cell line) and RG-2 (rat glioma cell line) cells endogenously express human and rat PAC1 receptors, respectively. Agonist activity of PAC1 peptides was tested by incubating with SHSY-5Y at 2,000 cells per well or RG-2 at 5,000 cells per well for 15 minutes at room temperature. PAC1 receptor agonist PACAP38 or maxadilan was included as a positive control. The reaction was stopped by adding detection mixture, europium (Eu) chelate-labeled cAMP tracer and cAMP-specific monoclonal antibodies labeled with the ULight™ dye, to all wells followed by a 60-minute incubation at room temperature. The assay plates were then read on an EnVision instrument at an emission wavelength of 665 and 615 nm and data were analyzed using Genedata Screener or GraphPad Prism software. A similar procedure was used in the antagonist assays by using a fixed concentration of PAC1 agonist. The concentrations of agonists were chosen based on their ECK) values at PAC1 receptors in SHSY-5Y or RG-2 cells. SHSY-5Y or RG-2 cells were added into 96-well half-area white plates. Serially diluted PAC1 peptides at ten concentrations were added and incubated for 30 minutes at room temperature. PAC1 agonist at EC80 concentration was then added and further incubated for 15 minutes at room temperature. The reaction was stopped by adding detection mixture to all wells followed by a 60-minute incubation at room temperature. The assay plates were read and analyzed the same way as that of agonist assay. Cells, agonists, and PAC1 peptides were prepared in freshly made assay buffer (F-12, 0.5 mM IBMX, 0.1 or 0.4% BSA (pH 7.4)). Detection mixture was made by mixing a 1/50 dilution of the Eu-cAMP tracer stock solution in cAMP Detection Buffer and a 1/150 dilution of the ULight-anti-cAMP stock solution in cAMP Detection Buffer. Europium (Eu) chelate-labeled cAMP tracer, cAMP-specific monoclonal antibodies labeled with the ULight™ dye, BSA, and detection buffer were provided in LANCE Ultra cAMP Kit from PerkinElmer

| Molecule | IC50 [1] [nM] | IC50 [2] [nM] |
| --- | --- | --- |
| CC[C@H](C)[C@H](NC(=O)[C@H](C)NC(=O)[C@H](CCCCN)NC(=O)[C@H](CCCNC(=N)N)NC(=O)[C@H](Cc1ccccc1)NC(=O)[C@H](CCC(N)=O)NC(=O)[C@@H]1CSSC[C@H](N)C(=O)N[C@@H](CC(=O)O)C(=O)N[C@@H](C)C(=O)N[C@@H]([C@@H](C)O)C(=O)N1)C(=O)N[C@@H](CC(=O)O)C(=O)N[C@@H](CC(=O)O)C(=O)N[C@H]1CSSC[C@@H](C(=O)N[C@@H](CCSC)C(=O)N[C@@H](CCCCN)C(=O)N[C@@H](CCC(N)=O)C(=O)N[C@@H](CCCCN)C(=O)N[C@@H](CCCCN)C(=O)N[C@@H](CCCCN)C(=O)N[C@@H](CCC(=O)O)C(=O)N[C@@H](Cc2ccccc2)C(=O)N[C@@H](CCCCN)C(=O)N[C@@H](C)C(=O)NCC(=O)N[C@@H](Cc2c[nH]cn2)C(=O)O)NC(=O)[C@H](C)NC(=O)[C@H](CCCCN)NC(=O)[C@H](Cc2ccccc2)NC(=O)[C@H](C(C)C)NC(=O)[C@H](CO)NC(=O)[C@H](CO)NC(=O)[C@H](Cc2c[nH]cn2)NC(=O)[C@H](Cc2ccc(O)cc2)NC(=O)[C@H](C)NC(=O)[C@H](CCC(N)=O)NC(=O)[C@H](CCCNC(=N)N)NC(=O)[C@H](C)NC1=O [compound 35] (H-CDATCQFRKAIDDCARQAYHSSVFKACMKQKKKEFKAGH-OH; disulfide 1-5, 14-27) | 0.01 to 1 | 0.01 to 1 |
| CDATCQFRKAIDDCVRQAHHSNVPGSVFKACMKQKKKEWKAGY (disulfide 1-5, 14-31) [SEQ ID NO 86] | 0.01 to 1 | 0.01 to 1 |
| CDATCQFRKAIDDCVYSAWHANVPGSVFKACMKQKKKEFKAG-NH2 (disulfide 1-5, 14-31) [compound 137] | 0.01 to 1 | 0.01 to 1 |
| CDATCQFRKAIDDCYYRSWHSNVPGSVFKACMKFRFNVWKAG-NH2 (disulfide 1-5, 14-31) [compound 67] | 0.01 to 1 | 1 to 100 |
| CDATCQFRKAIDDCVRQAHHSNVPGSVWKACMKQKKKEWKAGH (disulfide 1-5, 14-31) [compound 106] | 0.01 to 1 | 0.01 to 1 |
| CDATCQFRKAIDDCAKQAHHANVPGSVFKACMKQKKKEFKAG-NH2 (disulfide 1-5, 14-31) [compound 13] | 0.01 to 1 | 0.01 to 1 |
| CDATCQFRKAIDECAKQAHHSNVPGSVFKACMKQKKKEFKAG-NH2 (disulfide 1-5, 14-31) [compound 12] | < 0.01 | 0.01 to 1 |
| CDATCQFRKAIDDCQKQAHHSNVPGSVFKACLLQKKKEFKAG-NH2 (disulfide 1-5, 14-31) [compound 100] | 1 to 100 | 1 to 100 |
| CDATCQFRKAIDDCYYYAMHSNVPGSVWKACLKQKKKEFKAG-NH2 (disulfide 1-5, 14-31) [compound 78] | 0.01 to 1 | 0.01 to 1 |
| CDATCQFRKAIDDCMWYSRHSNVPGSVFKACMKQKKKEFKAG-NH2 (disulfide 1-5, 14-31) [compound 121] | 0.01 to 1 | 0.01 to 1 |
| CDATCHFRKAIDDCYYRSWHSNVPGSVFKACMKQHKKRWRAG-NH2 (disulfide 1-5, 14-31) [compound 71] | 0.01 to 1 | 0.01 to 1 |
| CDATCQFRKAIDDCARQAHHSNVPGSVFKSCMKQKKKEWKAGH (disulfide 1-5, 14-31) [compound 24] | 0.01 to 1 | 0.01 to 1 |
| CDATCQFRKAIDDCQKQAHHSNVPGSVFKACMKQKKKEFKAQ (disulfide 1-5, 14-31) [compound 96] | 0.01 to 1 | 1 to 100 |
| CDATCQFRKAIDDCWVIAWHSNVPGSVFKACMKQKKKEFKAG-NH2 (disulfide 1-5, 14-31) [compound 130] | < 0.01 | 0.01 to 1 |
| CDATCQFRKAIDDCYYYAMHSNVPGSVWKACMKQKKKEFKAG-NH2 (disulfide 1-5, 14-31) [compound 150] | 0.01 to 1 | 0.01 to 1 |
| CDATCQFRKAIDDCARQAHHSQVPGSVFKACMKQKKKEWKAGH (disulfide 1-5, 14-31) [compound 22] | 0.01 to 1 | 0.01 to 1 |
| CC[C@H](C)[C@H](NC(=O)[C@H](C)NC(=O)[C@H](CCCCN)NC(=O)[C@H](CCCNC(=N)N)NC(=O)[C@H](Cc1ccccc1)NC(=O)[C@H](CCC(N)=O)NC(=O)[C@@H]1CSSC[C@H](N)C(=O)N[C@@H](CC(=O)O)C(=O)N[C@@H](C)C(=O)N[C@@H]([C@@H](C)O)C(=O)N1)C(=O)N[C@@H](CC(=O)O)C(=O)N[C@@H](CC(=O)O)C(=O)N[C@H]1CSSC[C@@H](C(=O)N[C@@H](CCSC)C(=O)N[C@@H](CCCCN)C(=O)N[C@@H](CCC(N)=O)C(=O)N[C@@H](CCCCN)C(=O)N[C@@H](CCCCN)C(=O)N[C@@H](CCCCN)C(=O)N[C@@H](CCC(=O)O)C(=O)N[C@@H](Cc2ccccc2)C(=O)N[C@@H](CCCCN)C(N)=O)NC(=O)[C@H](CCC(=O)O)NC(=O)[C@H](CCCCN)NC(=O)[C@H](Cc2ccccc2)NC(=O)[C@H](C(C)C)NC(=O)[C@H](CO)NC(=O)[C@H](CC(N)=O)NC(=O)CNC(=O)[C@H](C(C)C)NC(=O)[C@H](CC(N)=O)NC(=O)[C@H](CO)NC(=O)[C@H](Cc2c[nH]cn2)NC(=O)[C@H](Cc2c[nH]cn2)NC(=O)[C@H](C)NC(=O)[C@H](CCC(N)=O)NC(=O)[C@H](CCCCN)NC(=O)[C@H](CCC(N)=O)NC1=O [compound 275] (H-CDATCQFRKAIDDCQKQAHHSNVGNSVFKECMKQKKKEFK-NH2; disulfide 1-5, 14-31) | 1 to 100 | 1 to 100 |
| CDATCQFRKAIDDCQKQAHHSNVPGSVFKACLVQKKKEFKAG-NH2 (disulfide 1-5, 14-31) [compound 101] | 1 to 100 | 1 to 100 |
| CDATCQFRKAIDDCARQAHHSNVPGSVFKACSKQKKKEWKAGH (disulfide 1-5, 14-31) [compound 40] | 1 to 100 | 1 to 100 |
| CC[C@H](C)[C@H](NC(=O)[C@H](C)NC(=O)[C@H](CCCCN)NC(=O)[C@H](CCCNC(=N)N)NC(=O)[C@H](Cc1ccccc1)NC(=O)[C@H](CCC(N)=O)NC(=O)[C@@H]1CSSC[C@H](N)C(=O)N[C@@H](CC(=O)O)C(=O)N[C@@H](C)C(=O)N[C@@H]([C@@H](C)O)C(=O)N1)C(=O)N[C@@H](CC(=O)O)C(=O)N[C@@H](CC(=O)O)C(=O)N[C@H]1CSSC[C@@H](C(=O)N[C@@H](CCSC)C(=O)N[C@@H](CCCCN)C(=O)N[C@@H](CCC(N)=O)C(=O)N[C@@H](CCCCN)C(=O)N[C@@H](CCCCN)C(=O)N[C@@H](CCCCN)C(=O)N[C@@H](CCC(=O)O)C(=O)N[C@@H](Cc2c[nH]c3ccccc23)C(=O)N[C@@H](CCCCN)C(=O)N[C@@H](C)C(=O)NCC(N)=O)NC(=O)[C@H](C)NC(=O)[C@H](CCCCN)NC(=O)[C@H](Cc2ccccc2)NC(=O)[C@H](C(C)C)NC(=O)[C@H](CO)NC(=O)[C@H](CO)NC(=O)[C@H](Cc2c[nH]cn2)NC(=O)[C@H](Cc2c[nH]c3ccccc23)NC(=O)[C@H](CO)NC(=O)[C@H](CCCNC(=N)N)NC(=O)[C@H](Cc2ccc(O)cc2)NC(=O)[C@H](Cc2ccc(O)cc2)NC1=O [compound 61] (H-CDATCQFRKAIDDCYYRSWHSSVFKACMKQKKKEWKAG-NH2; disulfide 1-5, 14-27) | 0.01 to 1 | 0.01 to 1 |
| CC[C@H](C)[C@H](NC(=O)[C@H](C)NC(=O)[C@H](CCCCN)NC(=O)[C@H](CCCNC(=N)N)NC(=O)[C@H](Cc1ccccc1)NC(=O)[C@H](CCC(N)=O)NC(=O)[C@@H]1CSSC[C@H](N)C(=O)N[C@@H](CC(=O)O)C(=O)N[C@@H](C)C(=O)N[C@@H]([C@@H](C)O)C(=O)N1)C(=O)N[C@@H](CC(=O)O)C(=O)N[C@@H](CC(=O)O)C(=O)N[C@H]1CSSC[C@@H](C(=O)N[C@@H](CCSC)C(=O)N[C@@H](CCCCN)C(=O)N[C@@H](CCC(N)=O)C(=O)N[C@@H](CCCCN)C(=O)N[C@@H](CCCCN)C(=O)N[C@@H](CCCCN)C(=O)N[C@@H](CCC(=O)O)C(=O)N[C@@H](Cc2c[nH]c3ccccc23)C(=O)N[C@@H](CCCCN)C(=O)N[C@@H](C)C(=O)NCC(=O)N[C@@H](Cc2c[nH]cn2)C(=O)O)NC(=O)[C@H](C)NC(=O)[C@H](CCCCN)NC(=O)[C@H](Cc2ccccc2)NC(=O)[C@H](C(C)C)NC(=O)[C@H](CO)NC(=O)[C@H](CO)NC(=O)[C@H](Cc2c[nH]cn2)NC(=O)[C@H](Cc2c[nH]cn2)NC(=O)[C@H](C)NC(=O)[C@H](CCC(N)=O)NC(=O)[C@H](CCCNC(=N)N)NC(=O)[C@H](C(C)C)NC1=O [compound 75] (H-CDATCQFRKAIDDCVRQAHHSSVFKACMKQKKKEWKAGH-OH; disulfide 1-5, 14-27) | < 0.01 | 0.01 to 1 |
